The values that follow come from US20110306606A1, “NOVEL 2,6-SUBSTITUTED-3-NITROPYRIDINE DERIVATIVE, METHOD FOR PREPARING SAME, AND PHARMACEUTICAL COMPOSITION INCLUDING SAME” (priority 2008, published 2011).

In data set [1] the test system is Osteoblasts (Calvarial cells). The experiment in a line: Alkaline phosphatase (ALP) activity in osteoblasts (Calvarial cells). The format is cell-based, mice. The following applies: 1 μM compound, 3 days. Here is the method:
Differentiation and activity of osteoblasts were indirectly evaluated by measuring an ALP activity having a close relationship with osteogenesis.
Osteoblasts (Calvarial cells) prepared in Experimental Example 1 and MC3T3-E1 cells (available from RIKEN Cell Bank, Japan) were collected in α-MEM supplemented with 10% FBS, followed by cell counting. The cells were dispensed into 24-well cultureware at a density of 2×10^4 cells/well. After culturing of the cells for 24 hours, the culture media were discarded and replaced with fresh media in which test compounds were diluted to a concentration of 1 μM (1 mL/well). In addition, the vehicle control group containing 0.1% DMSO was also treated. […] When the experiment was terminated, the supernatant was removed and the cells were washed three times with cold phosphate buffer at 4°. 0.2% Triton X-100 was added to the washed cells which were then subjected to three cycles of freezing at −70° and thawing at room temperature for the complete lysis of cells. The cell extracts were pooled and centrifuged to collect the cell supernatant which was used for the measurement of ALP activity and proteins. The protein concentration was measured using a BCA assay kit (manufactured by Sigma-Aldrich). For the measurement of ALP activity, p-nitrophenylphosphate was added to the cell supernatant which was then incubated at 37° for 30 minutes, and the reaction was terminated with the addition of 50 μL of 0.2N sodium hydroxide. The standard curve was plotted at the absorbance of 405 nm using p-nitrophenol as a standard material and then the absorbance of test materials thus reacted was measured to determine the production amount of p-nitrophenol.
The ALP activity was calculated by dividing the amount of p-nitrophenol produced from each test material by the protein amount and the reaction time. Therefore, the unit of ALP activity was given in terms of p-nitrophenol/μg protein/min. The results are given in Tables 28-1 and 28-2 where the ALP activity unit of each test material was given in terms of % change through the comparison between the individual test materials and the vehicle control group.

Data set [2] relates to Osteoblasts (Calvarial cells). The experiment in a line: Cytotoxicity test (MTT). The following applies: 1 μM compound, 72 hours, in comparison with vehicle control.
Data set [3] concerns Osteoblasts (Calvarial cells). The following applies: ICR, mouse, 72 h, 1 μM.

Structures are written as SMILES. Where two headings read alike, the source gives them in different places.

As to `CNc1ccc([N+](=O)[O-])c(Nc2ccc(N3CCOCC3)c(F)c2)n1` [Compound 191, 2-[(3-fluoro-4-morpholino)phenylamino]-6-(methylamino)-3-nitropyridine], in data set [1], the “ALP activity (1 μM, % of Control) Calvarial cell” value is listed as 156 % of Control. The “Cell viability (%) Calvarial cell” value in data set [2] is 97%.
The like results for `CCN(CCO)c1ccc([N+](=O)[O-])c(Nc2ccc(N3CCOCC3)cc2)n1` [Compound 118, 2-(4-morpholinophenylamino)-6-[(N-ethyl-2-hydroxy)ethylamino]-3-nitropyridine] were, in that order, 111 % of Control and 102%.
As to `CC(C)CNc1ccc([N+](=O)[O-])c(Nc2ccc(N3CCOCC3)cc2)n1` [Compound 110, 2-(4-morpholinophenylamino)-6-(isobutylamino)-3-nitropyridine], the activity at 1 µM in data set [1] (Mus musculus, 72 h, Calvarial cell, read-out: ALP activity (1 μM, % of Control) Calvarial cell) was determined as 143%. In addition, the “Cell viability (%) Calvarial cell” value in data set [3] is 112%.
With `NC1CCN(c2ccc(Nc3nc(NCc4cccnc4)ccc3[N+](=O)[O-])cc2F)CC1` [Compound 257, 2-{[3-fluoro-4-(4-aminopiperidino)]phenylamino}-6-[(3-pyridyl)methylamino]-3-nitropyridine], the “ALP activity (1 μM, % of Control) Calvarial cell” value in data set [1] was 122 % of Control. The “Cell viability (%) Calvarial cell” value in data set [2] is listed as 101%.
Take `CC1=NCCN1c1ccc([N+](=O)[O-])c(Nc2ccc(C)cc2)n1` [Compound 6, 2-(4-methylphenylamino)-6-[(2-methyl-4,5-dihydro)imidazol-1-yl]-3-nitropyridine]: the “ALP activity (1 μM, % of Control) Calvarial cell” value in data set [1] is reported as 116 % of Control. Also, the “Cell viability (%) Calvarial cell” value in data set [2] was 94%.
Taken in the same sequence, the figures for `CC(C)CNc1ccc([N+](=O)[O-])c(Nc2ccc(N3CCSCC3)c(F)c2)n1` [Compound 205, 2-[(3-fluoro-4-thiomorpholino)phenylamino]-6-(isobutylamino)-3-nitropyridine] were 132 % of Control and 109%.
As to `NC1CCN(c2ccc(Nc3nc(NCc4ccncc4)ccc3[N+](=O)[O-])cc2F)CC1` [Compound 258, 2-{[3-fluoro-4-(4-aminopiperidino)]phenylamino}-6-[(4-pyridyl)methylamino]-3-nitropyridine], the “ALP activity (1 μM, % of Control) Calvarial cell” value in data set [1] is given as 115 % of Control. In data set [2], the “Cell viability (%) Calvarial cell” value stood at 101%.
The like results for `CC1=NCCN1c1ccc([N+](=O)[O-])c(Nc2ccc(N3CCC(N)CC3)c(F)c2)n1` [Compound 252, 2-{[3-fluoro-4-(4-aminopiperidino)]phenylamino}-6-[(2-methyl-4,5-dihydro)imidazol-1-yl]-3-nitropyridine] were, in that order, 112 % of Control and 103%.
The like results for `CC(C)Nc1ccc([N+](=O)[O-])c(Nc2ccc(N3CCC(O)CC3)c(F)c2)n1` [Compound 237, 2-{[3-fluoro-4-(4-hydroxypiperidino)]phenylamino}-6-(isopropylamino)-3-nitropyridine] were, in that order, 117 % of Control and 99%.
The like results for `CNc1ccc([N+](=O)[O-])c(Nc2ccc(N3CCSCC3)c(F)c2)n1` [Compound 203, 2-[(3-fluoro-4-thiomorpholino)phenylamino]-6-(methylamino)-3-nitropyridine] were, in that order, 154 % of Control and 97%.
Turning to `CC(C)Nc1ccc([N+](=O)[O-])c(Nc2ccc(N3CCOCC3)c(F)c2)n1` [Compound 192, 2-[(3-fluoro-4-morpholino)phenylamino]-6-(isopropylamino)-3-nitropyridine], in data set [1], the “ALP activity (1 μM, % of Control) Calvarial cell” value is 113 % of Control. Also, the “Cell viability (%) Calvarial cell” value in data set [2] was determined as 99%.
Taken in the same sequence, the figures for `CC1=NCCN1c1ccc([N+](=O)[O-])c(Nc2ccc(C(C)(C)C)cc2)n1` [Compound 35, 2-[4-(t-butyl)phenylamino]-6-[(2-methyl-4,5-dihydro)imidazol-1-yl]-3-nitropyridine] were 132 % of Control and 96%.
Taken in the same sequence, the figures for `CC(C)Nc1ccc([N+](=O)[O-])c(Nc2ccc(N3CCCCC3)c(F)c2)n1` [Compound 224, 2-[(3-fluoro-4-piperidino)phenylamino]-6-(isopropylamino)-3-nitropyridine] were 125 % of Control and 101%.
`Nc1ccc(Nc2nc(N3CCC(N)CC3)ccc2[N+](=O)[O-])cc1` [Compound 65, 2-[4-(amino)phenylamino]-6-(4-aminopiperidino)-3-nitropyridine]: the “Cell viability (%) Calvarial cell” value in data set [3] is on record as 102%.
On to `CCN(CCO)c1ccc([N+](=O)[O-])c(Nc2ccc(C#N)cc2)n1` [Compound 51, 2-(4-cyanophenylamino)-6-[(N-ethyl-2-hydroxy)ethylamino]-3-nitropyridine], for which the “ALP activity (1 μM, % of Control) Calvarial cell” value in data set [1] is 116 % of Control. Also, the “Cell viability (%) Calvarial cell” value in data set [2] was determined as 100%.
Consider `Nc1cccc(Nc2nc(NCCCn3ccnc3)ccc2[N+](=O)[O-])c1` [Compound 82, 2-[3-(amino)phenylamino]-6-[(3-imidazol-1-yl)propylamino]-3-nitropyridine], for which, in data set [3], the “Cell viability (%) Calvarial cell” value is on record as 106%.
Same read-out and setting: for `CCCCNc1ccc([N+](=O)[O-])c(Nc2ccc(-c3csc(C4CCCCC4)n3)cc2)n1` [Compound 165, 2-[4-(2-cyclohexylthiazol-4-yl)phenylamino]-6-(n-butylamino)-3-nitropyridine] the value was 102%; for `O=[N+]([O-])c1ccc(NCc2cccnc2)nc1Nc1ccc(-c2csc(C3CCCCC3)n2)cc1` [Compound 162, 2-[4-(2-cyclohexylthiazol-4-yl)phenylamino]-6-[(3-pyridyl)methylamino]-3-nitropyridine], 67%; for `O=[N+]([O-])c1ccc(N2CCNCC2)nc1Nc1ccc(-c2csc(C3CCCCC3)n2)cc1` [Compound 158, 2-[4-(2-cyclohexylthiazol-4-yl)phenylamino]-6-(piperazin-1-yl)-3-nitropyridine], 88%.
Still for that read-out and setting: next, `CC(C)c1nccn1-c1ccc([N+](=O)[O-])c(Nc2ccc(-c3csc(C4CCCCC4)n3)cc2)n1` [Compound 157, 2-[4-(2-cyclohexylthiazol-4-yl)phenylamino]-6-[(2-isopropyl)imidazol-1-yl]-3-nitropyridine]: 115%; `CC(C)(C)c1ccc(Nc2nc(N3CCOCC3)ccc2[N+](=O)[O-])cc1` [Compound 44, 2-[4-(t-butyl)phenylamino]-6-morpholino-3-nitropyridine]: 101%; `O=[N+]([O-])c1ccc(N2CCC(O)CC2)nc1Nc1ccc(F)c(F)c1` [Compound 126, 2-[(3,4-difluoro)phenylamino]-6-(4-hydroxypiperidino)-3-nitropyridine]: 95%.
Turning to `O=[N+]([O-])c1ccc(N2CCC(O)CC2)nc1Nc1ccc(N2CCC(O)CC2)c(F)c1` [Compound 239, 2-{[3-fluoro-4-(4-hydroxypiperidino)]phenylamino}-6-(4-hydroxypiperidino)-3-nitropyridine], in data set [1], the “ALP activity (1 μM, % of Control) Calvarial cell” value is given as 130 % of Control. In addition, in data set [2], the “Cell viability (%) Calvarial cell” value is on record as 98%.
Take `NC1CCN(c2ccc([N+](=O)[O-])c(Nc3ccc(F)c(F)c3)n2)CC1` [Compound 130, 2-[(3,4-difluoro)phenylamino]-6-(4-aminopiperidino)-3-nitropyridine]: the “Cell viability (%) Calvarial cell” value in data set [3] was determined as 101%.
Turning to `O=[N+]([O-])c1ccc(N2CCC(O)CC2)nc1Nc1ccc(N2CCSCC2)c(F)c1` [Compound 206, 2-[(3-fluoro-4-thiomorpholino)phenylamino]-6-(4-hydroxypiperidino)-3-nitropyridine], the “ALP activity (1 μM, % of Control) Calvarial cell” value in data set [1] is 124 % of Control. Besides, the “Cell viability (%) Calvarial cell” value in data set [2] stood at 102%.
As to `NC1CCN(c2ccc(Nc3nc(N4CCNCC4)ccc3[N+](=O)[O-])cc2F)CC1` [Compound 253, 2-{[3-fluoro-4-(4-aminopiperidino)]phenylamino}-6-(piperazin-1-yl)-3-nitropyridine], in data set [1], the “ALP activity (1 μM, % of Control) Calvarial cell” value is 115 % of Control. Moreover, in data set [2], the “Cell viability (%) Calvarial cell” value was found to be 104%.
As for `CC(C)CNc1ccc([N+](=O)[O-])c(Nc2ccc(F)c(F)c2)n1` [Compound 124, 2-[(3,4-difluoro)phenylamino]-6-(isobutylamino)-3-nitropyridine], in data set [3], the “Cell viability (%) Calvarial cell” value was 106%.
